Results as given in the NIST ThermoML archive (doi:10.1021/je500211w).

Assay: xn = mol fraction of the nth substance listed
Settings: 101 kPa, Liquid, NMR spin-echo technique

OCC(F)(F)F [2,2,2-trifluoroethanol] + O
binary diffusion coefficient [m2/s]
Settings | 283.2 K | 288.2 K | 293.2 K | 298.2 K | 303.2 K | 308.2 K | 313.2 K
x1 = 0.000511 | 7.32e-10 | 8.43e-10 | 1.02e-09 | 1.13e-09 | 1.28e-09 | 1.44e-09 | 1.71e-09
x1 = 0.001034 | 7.18e-10 | 8.44e-10 | 9.98e-10 | 1.11e-09 | 1.27e-09 | 1.46e-09 | 1.71e-09
x1 = 0.004989 | 6.91e-10 | 8.01e-10 | 9.67e-10 | 1.1e-09 | 1.23e-09 | 1.41e-09 | 1.66e-09
x1 = 0.009331 | 6.69e-10 | 7.62e-10 | 9.35e-10 | 1.1e-09 | 1.2e-09 | 1.36e-09 | 1.57e-09
x1 = 0.01008 | 6.68e-10 | 7.87e-10 | 8.96e-10 | 1.06e-09 | 1.23e-09 | 1.37e-09 | 1.57e-09
x1 = 0.04965 | 4.57e-10 | 5.52e-10 | 7.24e-10 | 8.51e-10 | 9.71e-10 | 1.1e-09 | 1.28e-09
